Assays:
[1] = physchem; settings: octanol/water
Description: Partition coefficient (logP)

[2] = target: T1, Amine oxidase [flavin-containing] B (Bos taurus, UniProt P56560); settings: cattle
T1 sequence (P56560 whole entry): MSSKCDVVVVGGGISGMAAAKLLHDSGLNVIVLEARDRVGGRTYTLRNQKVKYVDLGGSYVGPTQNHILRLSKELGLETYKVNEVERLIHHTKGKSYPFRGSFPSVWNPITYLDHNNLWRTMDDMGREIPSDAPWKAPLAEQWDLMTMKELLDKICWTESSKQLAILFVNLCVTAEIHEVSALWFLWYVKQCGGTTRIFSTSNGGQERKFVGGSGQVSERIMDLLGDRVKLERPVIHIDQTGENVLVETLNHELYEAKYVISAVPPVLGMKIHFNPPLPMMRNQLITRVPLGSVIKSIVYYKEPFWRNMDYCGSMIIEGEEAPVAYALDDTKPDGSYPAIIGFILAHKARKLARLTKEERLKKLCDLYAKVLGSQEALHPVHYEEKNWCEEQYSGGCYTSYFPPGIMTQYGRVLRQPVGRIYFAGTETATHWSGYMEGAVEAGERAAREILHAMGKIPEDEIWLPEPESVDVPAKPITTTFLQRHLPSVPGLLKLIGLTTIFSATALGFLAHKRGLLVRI
Description: Kcat against bovine liver Monoamine oxidase B

[3] = target: T2, Monoamine oxidase B (MAO-B) (Bos taurus, UniProt P56560); test: in vitro; settings: cattle, bovine liver monoamine oxidase B
T2 sequence (P56560 whole entry): T1 sequence (P56560 whole entry)
Description: Km against bovine liver Monoamine oxidase B

[4] = target: T1, Amine oxidase [flavin-containing] B; test: Ratio of Kcat versus Km was determined

SMILES | logP [1] | k cat [2] | Km [3] | Ratio [4]
CN1CC=C(c2cccn2C)CC1 | 1.73 |  |  | 
CN1CC=C(c2ccccn2)CC1 | 1.24 | 0.933 s⁻¹ | 900 µM | 60
CN1CC=C(n2cnc3ccccc32)CC1 | 2.54 |  |  | 220
CN1CC=C(n2ccc3ccccc32)CC1 | 3.61 |  |  | 3350
CN1CC=C(n2ccnn2)CC1 | 1.13 |  |  | 
CN1CC=C(n2cccc2)CC1 | 2.17 |  |  | 410
CN1CC=C(c2ccc[nH]2)CC1 | 1.27 |  |  | 
CN1CC=C(c2cccnc2)CC1 | 1.44 | 1.12 s⁻¹ | 1900 µM | 35
CN1CC=C(n2nnc3ccccc32)CC1 | 2.36 |  |  | 675
CN1CC=C(n2ncc3ccccc32)CC1 | 2.85 |  |  | 850
CN1CC=C(c2ccncc2)CC1 | 1.24 |  |  | 6
CN1CC=C(n2nccn2)CC1 | 1.13 |  |  | 
CN1CC=C(n2ccnc2)CC1 | 1.31 |  |  | 

Source: ChEMBL document CHEMBL1132216, “Studies on the monoamine oxidase-B-catalyzed biotransformation of 4-azaaryl-1-methyl-1,2,3,6-tetrahydropyridine derivatives” (J Med Chem, 1999)
